Laboratory results reported in patent US20010027248A1, “Novel receptor” (SmithKline Beecham p.l.c., priority 1994, published 2001).

Each compound was assayed against novel receptor (rat forebrain tissue) (assay: Radioligand saturation binding to the novel receptor in rat forebrain tissue homogenate). Details: calculated from specific binding over a range of radioligand concentrations, read-out: Kd (dissociation constant).
Description: Adult male Wistar rats were killed and brains removed by dissection. Whole forebrain tissue was dissected out and homogenised in a buffered aqueous medium. The homogenised tissue was washed by centrifugation and resuspended in the same buffer. After centrifugation the resuspended tissue was either used fresh or stored frozen for periods of up to 3 months or more before use.
Aliquot of tissue prepared as above at a concentration of 1-10 mg protein/ml were mixed with aliquots of [^3H]-compound A dissolved in buffered medium ([…] HEPES, pH7.4). The final concentration of [^3H] compound A in the mixture was in the range of 20-50 nM. The mixture was incubated at room temperature for about 1 hour. [^3H]-compound A bound to the tissue was then separated from unbound [^3H]-compound A by filtration. This filtration was through Whatman glass fibre filters (GF/B or GF/C). The filters were then washed rapidly with ice-cold buffered medium (50 mM HEPES, pH7.4). The amount of radioactivity bound to the tissue trapped on the filters was measured by addition of liquid scintillation cocktail filters followed by counting in a liquid scintillation counter. […]

Row | Structure (SMILES) | Kd [nM]
1 | CC(=O)c1ccc2c(c1)[C@H](NC(=O)c1ccc(F)cc1)[C@@H](O)C(C)(C)O2 [compound A, trans-(+)-6-Acetyl-4S-(4-fluorobenzolamino)-3,4-dihydro-2,2-dimethyl-2H-1-benzopyran-3R-ol] | 40

What follows are compounds tested on novel receptor (assay: Binding of known anticonvulsant compounds to the novel receptor). Details: not given.
Excerpt: Alternatively, the binding affinities of non-radio-labelled test compounds may be established by measuring the amount of displacement of a radio-labelled compound which is known to bind to the receptor such as compound (A) and (B) and other compounds mentioned or covered by the aforementioned patents or applications, using conventional techniques.

Row | Structure (SMILES) | binding to the novel receptor
2 | CCC1(C)CC(=O)NC1=O (stereo not drawn) [ethosuximide] | do not bind
3 | CN1C(=O)CN=C(c2ccccc2)c2cc(Cl)ccc21 [diazepam] | do not bind
4 | C=CC(N)CCC(=O)O (stereo not drawn) [vigabatrin] | do not bind
5 | CCCC(C)C1(CC)C(=O)NC(=O)NC1=O (stereo not drawn) [pentobarbitone] | do not bind
6 | NC(=O)N1c2ccccc2C=Cc2ccccc21 [carbamazepine] | do not bind
7 | O=C1NC(=O)C(c2ccccc2)(c2ccccc2)N1 [phenytoin] | do not bind
8 | NCC1(CC(=O)O)CCCCC1 [gabapentin] | do not bind
9 | Nc1nnc(-c2cccc(Cl)c2Cl)c(N)n1 [lamotrigine] | do not bind
